Values joined by “and” are separate entries in the source; they are usually repeats but may differ in a detail not shown here. Identical values can stand only once.
Test system: C. elegans
Assay: C. elegans motor phenotype scoring on solid media (Punc/jerky-unc, coiled, paralyzed), wild-type young adults
Type: in vivo, Caenorhabditis elegans
Settings: for any phene, mean % fraction of young adults exhibiting any phenotype (coiled, jerky-Unc or paralyzed) / atypical locomotion (number of animals) / coiled (number of animals) / no phene (number of animals) / paralyzed (number of animals): one hour; for any phene, mean % fraction of young adults exhibiting any phenotype (coiled, jerky-Unc or paralyzed): mean of three biological replicates; for atypical locomotion (number of animals) / coiled (number of animals) / no phene (number of animals) / paralyzed (number of animals): young adults, 20 animals per trial, single replicate counts; for AVERAGES Fraction Coiled / AVERAGES Fraction Paralyzed / AVERAGES Fraction Punc: mean of 3 replicates; for Fraction Coiled / Fraction Paralyzed / Fraction Punc: single replicate

## CCC1CCC(N2CCN(c3ccc([N+](=O)[O-])cc3)CC2)CC1 (centres unmarked) [Nemacol-2]
3.75uM
  any phene, mean % fraction of young adults exhibiting any phenotype (coiled, jerky-Unc or paralyzed): 29.1667%
  atypical locomotion (number of animals): 5 and 8 and 2 and 3 and 9
  coiled (number of animals): 0
  no phene (number of animals): 15 and 12 and 18 and 17 and 11
  paralyzed (number of animals): 0
15 μM, 30 min, adults
  NP (number of animals): 5 and 7 and 10
  P (number of animals): 0
  Punc (number of animals): 10 and 9 and 8
  AVERAGES Fraction Coiled: 0.0926
  AVERAGES Fraction Paralyzed: 0.0
  AVERAGES Fraction Punc: 0.5
  Fraction Coiled: 0.167 and 0.111 and 0.0
  Fraction Paralyzed: 0.0
  Fraction Punc: 0.556 and 0.5 and 0.444
15 μM, 60 min, adults
  C2 (number of animals): 2 and 1
  P (number of animals): 0
  Punc (number of animals): 14 and 15
  AVERAGES Fraction Coiled: 0.13
  AVERAGES Fraction Paralyzed: 0.0
  AVERAGES Fraction Punc: 0.8
  Fraction Coiled: 0.111 and 0.167
  Fraction Paralyzed: 0.0
  Fraction Punc: 0.8
15 μM, 90 min, adults
  C2 (number of animals): 1 and 2
  P (number of animals): 0
  Punc (number of animals): 15 and 11
  AVERAGES Fraction Coiled: 0.113
  AVERAGES Fraction Paralyzed: 0.0
  AVERAGES Fraction Punc: 0.8
  Fraction Coiled: 0.111 and 0.118
  Fraction Paralyzed: 0.0
  Fraction Punc: 0.8 and 0.647
15 μM, 120 min, adults
  Punc (number of animals): 11 and 7
  AVERAGES Fraction Coiled: 0.0741
  AVERAGES Fraction Paralyzed: 0.0185
  AVERAGES Fraction Punc: 0.537
  Fraction Coiled: 0.0556 and 0.111
  Fraction Paralyzed: 0.0 and 0.0556
  Fraction Punc: 0.6 and 0.4
15 μM, 240 min, adults
  C1 (number of animals): 0
  C2 (number of animals): 0
  NP (number of animals): 8 and 12 and 15
  P (number of animals): 0
  AVERAGES Fraction Coiled: 0.037
  AVERAGES Fraction Paralyzed: 0.0741
  AVERAGES Fraction Punc: 0.6
  Fraction Coiled: 0.0 and 0.111
  Fraction Paralyzed: 0.0 and 0.111
  Fraction Punc: 0.556 and 0.6
15 μM, 360 min, adults
  C1 (number of animals): 0
  NP (number of animals): 14 and 9 and 17
  AVERAGES Fraction Coiled: 0.037
  AVERAGES Fraction Paralyzed: 0.0185
  AVERAGES Fraction Punc: 0.2
  Fraction Coiled: 0.0 and 0.111
  Fraction Paralyzed: 0.0 and 0.0556
  Fraction Punc: 0.222 and 0.333 and 0.0556
15 μM, next day, adults
  Next Day Animals alive (moving fine): alive, recovered
15uM
  any phene, mean % fraction of young adults exhibiting any phenotype (coiled, jerky-Unc or paralyzed): 95.873%
  atypical locomotion (number of animals): 10 and 11 and 18 and 13
  coiled (number of animals): 5 and 2 and 4
  no phene (number of animals): 0 and 2 and 1
  paralyzed (number of animals): 5 and 2 and 0 and 3
30 μM, 30 min, adults
  C1 (number of animals): 3 and 2
  Punc (number of animals): 10 and 11 and 16
  AVERAGES Fraction Coiled: 0.246
  AVERAGES Fraction Paralyzed: 0.0185
  AVERAGES Fraction Punc: 0.7
  Fraction Coiled: 0.333 and 0.3 and 0.111
  Fraction Paralyzed: 0.0556 and 0.0
  Fraction Punc: 0.556 and 0.647 and 0.9
30 μM, 60 min, adults
  NP (number of animals): 0
  Punc (number of animals): 7 and 8 and 13
  AVERAGES Fraction Coiled: 0.3
  AVERAGES Fraction Paralyzed: 0.167
  AVERAGES Fraction Punc: 0.5
  Fraction Coiled: 0.4 and 0.333 and 0.222
  Fraction Paralyzed: 0.222 and 0.0556
  Fraction Punc: 0.4 and 0.444 and 0.7
30 μM, 90 min, adults
  NP (number of animals): 0
  P (number of animals): 5 and 3
  Punc (number of animals): 8 and 10 and 12
  AVERAGES Fraction Coiled: 0.241
  AVERAGES Fraction Paralyzed: 0.2
  AVERAGES Fraction Punc: 0.556
  Fraction Coiled: 0.278 and 0.167
